Source: ChEMBL document CHEMBL5331088, “Design and synthesis of novel halogen rich salicylanilides as potential antileishmanial agents” (Eur J Med Chem, 2023)

Tests used:
[1] = tested on: Leishmania donovani; assay: Antileishmanial activity against Leishmania donovani amastigotes infected in J774.A1 macrophage assessed as inhibition of parasite growth by luciferase assay; format: functional, organism-based
[2] = Cytotoxicity against African green monkey Vero cells assessed as reduction in cell viability by MTT assay; format: toxicity, cell-based; conditions: chlorocebus sabaeus
[3] = Cytotoxicity against mouse J774A.1 cells assessed as reduction in cell viability by MTT assay; format: toxicity, cell-based, J774.A1
[4] = Selectivity index, ratio of CC50 for cytotoxicity against mouse J774.A1 cells to IC50 for antileishmanial activity against Leishmania donovani amastigotes infected in J774.A1 macrophage; format: toxicity, cell-based; conditions: read-out: Ratio CC50/IC50
[5] = Selectivity index, ratio of CC50 for cytotoxicity against African green monkey Vero cells to IC50 for antileishmanial activity against Leishmania donovani amastigotes infected in J774.A1 macrophage; format: toxicity, cell-based; conditions: read-out: Ratio CC50/IC50
[6] = tested on: Leishmania donovani; assay: Antileishmanial activity against Leishmania donovani amastigotes infected in golden hamster model assessed as inhibition of splenic parasite burden at 50 mg/kg,ip for 5 consecutive days measured after 7 days of post treatment; format: functional; conditions: for inhibition in vivo at 50 mg/kg: 168 h, time 7 day
[7] = tested on: Leishmania donovani; assay: Antileishmanial activity against Leishmania donovani amastigotes infected in golden hamster model assessed as inhibition of splenic parasite burden at 50 mg/kg,ip for 5 consecutive days measured after 28 days of post treatment; format: functional; conditions: for inhibition in vivo at 50 mg/kg: 672 h, time 28 day
[8] = Leishmania donovani, J774.A1, read-out: IC50

| Compound | IC50 [1] | IC50 [1, 8] [µM] | CC50 [2] [µM] | CC50 [3] [µM] | selectivity ratio [4] | selectivity ratio [5] | inhibition in vivo at 50 mg/kg [6] [%] | inhibition in vivo at 50 mg/kg [7] [%] | inhibition ([6]; time 7.0 day) [%] | inhibition ([7]; time 28.0 day) [%] |
| --- | --- | --- | --- | --- | --- | --- | --- | --- | --- | --- |
| O=C(Nc1ccc(F)c(Cl)c1)c1ccccc1O | Not Active | – | – | – | – | – | – | – | – | – |
| O=C(Nc1cccc(C(F)(F)F)c1)c1cc(Cl)ccc1O | – | 3.47 | 3.17 | – | – | – | – | – | – | – |
| O=C(Nc1ccc([N+](=O)[O-])cc1Cl)c1ccccc1O | – | 3.27 | 7.29 | 42.1 | 12.9 | 2.23 | – | – | – | – |
| O=C(Nc1ccc(F)c(Cl)c1)c1cc(Cl)ccc1O | – | 2.89 | 14.5 | 52.4 | 18.1 | 5.02 | 25.1 | 16.5 | – | – |
| O=C(Nc1ccc(F)c(F)c1)c1ccccc1O | – | 7.36 | 45.4 | 43.9 | 5.96 | 6.17 | – | – | – | – |
| CCCCCCCCCCCCCCCCOP(=O)([O-])OCC[N+](C)(C)C [MILTEFOSINE] | – | 9.25 | 51.8 | 53.3 | 5.76 | 5.6 | – | – | – | – |
| O=C(Nc1ccc(F)cc1)c1ccccc1O | Not Active | – | – | – | – | – | – | – | – | – |
| O=C(Nc1ccccc1)c1ccccc1 [N-PHENYLBENZAMIDE] | Not Active | – | – | – | – | – | – | – | – | – |
| O=C(Nc1ccccc1Cl)c1cc(Cl)ccc1O | – | 2.62 | 13.2 | 46.5 | 17.7 | 5.02 | – | – | – | – |
| O=C(Nc1cc(Cl)cc(Cl)c1O)c1c(O)c(Cl)cc(Cl)c1Cl [OXYCLOZANIDE] | – | 7.71 | 156 | 42.4 | 5.49 | 31.2 | – | – | – | – |
| O=C(Nc1ccc([N+](=O)[O-])cc1Cl)c1ccccc1 | Not Active | – | – | – | – | – | – | – | – | – |
| O=C(Nc1ccc(F)cc1[N+](=O)[O-])c1cc(Cl)ccc1O | – | 3.88 | 21.9 | 49.6 | 12.8 | 5.65 | – | – | – | – |
| O=C(Nc1ccc(Cl)c(C(F)(F)F)c1)c1ccccc1O | Not Active | – | – | – | – | – | – | – | – | – |
| Sodium stibogluconate | – | – | – | – | – | – | – | – | 81.4 | 85.4 |
| O=C(Nc1ccc(F)cc1[N+](=O)[O-])c1ccccc1O | – | 7.47 | 65.2 | 41.1 | 5.5 | 8.73 | – | – | – | – |
| O=C(Nc1ccc(Br)c(C(F)(F)F)c1)c1ccccc1O | – | 3.82 | 4.33 | 44.2 | 11.6 | 1.13 | – | – | – | – |
| O=C(Nc1ccccc1)c1ccccc1O [SALICYLANILIDE] | Not Active | – | – | – | – | – | – | – | – | – |

| Compound | IC50 [1] | IC50 [1, 8] [µM] | CC50 [2] [µM] | CC50 [3] [µM] | selectivity ratio [4] | selectivity ratio [5] | inhibition in vivo at 50 mg/kg [6] [%] | inhibition in vivo at 50 mg/kg [7] [%] | inhibition ([6]; time 7.0 day) [%] | inhibition ([7]; time 28.0 day) [%] |
| --- | --- | --- | --- | --- | --- | --- | --- | --- | --- | --- |
| O=C(Nc1ccccc1)c1cccc(Cl)c1 | Not Active | – | – | – | – | – | – | – | – | – |
| O=C(Nc1ccc([N+](=O)[O-])cc1Cl)c1cccc(Cl)c1 | Not Active | – | – | – | – | – | – | – | – | – |
| O=C(Nc1ccc([N+](=O)[O-])cc1F)c1cc(Cl)ccc1O | – | 3.98 | 3.23 | 43.1 | 10.8 | 0.81 | – | – | – | – |
| O=C(Nc1ccc([N+](=O)[O-])cc1F)c1ccccc1O | – | 4.06 | 11.7 | 42.8 | 10.5 | 2.89 | – | – | – | – |
| O=C(Nc1ccc(F)c(F)c1)c1cc(Cl)ccc1O | – | 3.54 | 10.6 | 51.2 | 14.5 | 2.99 | – | – | – | – |
| O=C(Nc1ccc(Cl)cc1)c1cc(Cl)ccc1O | – | 2.09 | 16.3 | 39 | 18.7 | 7.8 | 63.1 | 65.2 | – | – |
| O=C(Nc1ccc(F)cc1)c1cc(Cl)ccc1O | Not Active | – | – | – | – | – | – | – | – | – |
| O=C(Nc1cc(Cl)cc(Cl)c1)c1ccccc1O | – | 7.97 | 7.09 | 42.2 | 5.3 | 0.89 | – | – | – | – |
| O=C(Nc1cc(Cl)cc(Cl)c1)c1cc(Cl)ccc1O | – | 3.83 | 6.49 | 38.8 | 10.1 | 1.69 | – | – | – | – |
| O=C(Nc1ccc(Br)c(C(F)(F)F)c1)c1cc(Cl)ccc1O | – | 3.5 | 2.54 | 46.6 | 13.3 | 0.72 | – | – | – | – |
| O=C(Nc1ccc([N+](=O)[O-])cc1Cl)c1cc(Cl)ccc1O [NICLOSAMIDE] | – | 3.68 | 3.06 | 42.1 | 11.4 | 0.61 | – | – | – | – |
| O=C(Nc1ccccc1)c1cc(Cl)ccc1O | Not Active | – | – | – | – | – | – | – | – | – |
| O=C(Nc1cccc(Cl)c1)c1cc(Cl)ccc1O | – | 4.62 | 13.9 | 50.5 | 10.9 | 3 | – | – | – | – |
| O=C(Nc1ccc(Br)cc1)c1cc(Cl)ccc1O | – | 3.83 | 10.1 | 50.8 | 13.3 | 2.64 | – | – | – | – |
| O=C(Nc1ccccc1F)c1cc(Cl)ccc1O | – | 3.95 | 12.1 | 44 | 11.1 | 3.06 | – | – | – | – |
| O=C(Nc1ccc(Cl)c(C(F)(F)F)c1)c1cc(Cl)ccc1O | – | 4 | 4.31 | 52.4 | 13.1 | 1.08 | – | – | – | – |
| O=C(Nc1ccccc1F)c1ccccc1O | Not Active | – | – | – | – | – | – | – | – | – |
